Test results from the supplement of paper PMC10307832.

What was measured:
Assay in all cases: relative viability (nuclei count vs DMSO), 5 days (fraction); higher = more cells survive
[1] = compound: C1=CC=C2C(=C1)C=CC(=C2SSC3=C(C=CC4=CC=CC=C43)O)O [IPA-3] + Cc1cc(Nc2cc(N3CCN(C)CC3)nc(Sc3ccc(NC(=O)C4CC4)cc3)n2)n[nH]1 [Tozasertib] (partner 0.1 µM)
In short: (§1)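 Lung cancer cell lines were seeded in 1536-well plates and dosed by pin tool the next day, with either a single drug or a fixed anchor-drug dose combined with five library-drug doses (not always all listed) spaced in √10 steps. Five days later, one step fixed the cells and stained their nuclei (final 0.05% Triton X-100, 1% formaldehyde, 1 ug/ml Hoechst), and nuclei were counted on 4× images. Relative viability is the nuclei count in treated wells divided by the count in vehicle wells, and each value is the median of duplicate plates.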

[2] = compound: C1=CC=C2C(=C1)C=CC(=C2SSC3=C(C=CC4=CC=CC=C43)O)O [IPA-3] + O=C(c1cc(Cc2n[nH]c(=O)c3ccccc23)ccc1F)N1CCN(C(=O)C2CC2)CC1 [Olaparib] (partner 8 µM)
In short: as §1

[3] = compound: Cc1ccc(-n2nc(C(C)(C)C)cc2NC(=O)Nc2ccc(OCCN3CCOCC3)c3ccccc23)cc1 [Doramapimod] + C[C@]1(O)C[C@@H](c2nc(-c3ccc4ccc(-c5ccccc5)nc4c3)c3c(N)nccn32)C1 [Linsitinib] (partner 1 µM)
In short: as §1

[4] = compound: Cc1ccc(-n2nc(C(C)(C)C)cc2NC(=O)Nc2ccc(OCCN3CCOCC3)c3ccccc23)cc1 [Doramapimod] + N=C(N)NC(=N)NCCc1ccccc1 [Phenformin] (partner 250 µM)
In short: as §1

For NCI-H1666, the relative viability ([1]; first compound 0.2 µM) was 0.611, the relative viability ([1]; first compound 0.6325 µM) was 0.604 and the relative viability ([1]; first compound 2 µM) was 0.594. It also gave a relative viability ([1]; first compound 6.325 µM) of 0.6, a relative viability ([1]; first compound 20 µM) of 0.703 and a relative viability ([2]; first compound 0.2 µM) of 0.854. For the same cell line, the relative viability ([2]; first compound 0.6325 µM) was 0.655, the relative viability ([2]; first compound 2 µM) was 0.764 and the relative viability ([2]; first compound 6.325 µM) was 0.749. It also gave a relative viability ([2]; first compound 20 µM) of 0.836, a relative viability ([3]; first compound 0.02 µM) of 0.871 and a relative viability ([3]; first compound 0.06325 µM) of 0.883. For the same cell line, the relative viability ([3]; first compound 0.2 µM) was 0.847, the relative viability ([3]; first compound 0.6325 µM) was 0.781 and the relative viability ([3]; first compound 2 µM) was 0.738. It also gave a relative viability ([4]; first compound 0.02 µM) of 0.601, a relative viability ([4]; first compound 0.06325 µM) of 0.555 and a relative viability ([4]; first compound 0.2 µM) of 0.61. For the same cell line, the relative viability ([4]; first compound 0.6325 µM) was 0.581 and the relative viability ([4]; first compound 2 µM) was 0.554.

Work on NCI-H1915 yielded a relative viability ([1]; first compound 0.2 µM) of 0.466, a relative viability ([1]; first compound 0.6325 µM) of 0.425 and a relative viability ([1]; first compound 2 µM) of 0.446. The relative viability ([1]; first compound 6.325 µM) was 0.428, the relative viability ([1]; first compound 20 µM) was 0.513 and the relative viability ([2]; first compound 0.2 µM) was 0.28. For the same cell line, the relative viability ([2]; first compound 0.6325 µM) was 0.237, the relative viability ([2]; first compound 2 µM) was 0.269 and the relative viability ([2]; first compound 6.325 µM) was 0.246. It also gave a relative viability ([2]; first compound 20 µM) of 0.255, a relative viability ([3]; first compound 0.02 µM) of 1.1 and a relative viability ([3]; first compound 0.06325 µM) of 1.17. The relative viability ([3]; first compound 0.2 µM) was 1.1, the relative viability ([3]; first compound 0.6325 µM) was 1.12 and the relative viability ([3]; first compound 2 µM) was 1.09. For the same cell line, the relative viability ([4]; first compound 0.02 µM) was 0.362, the relative viability ([4]; first compound 0.06325 µM) was 0.357 and the relative viability ([4]; first compound 0.2 µM) was 0.375. The relative viability ([4]; first compound 0.6325 µM) was 0.348 and the relative viability ([4]; first compound 2 µM) was 0.298.

With NCI-H2009 the relative viability ([1]; first compound 0.2 µM) was 0.805, the relative viability ([1]; first compound 0.6325 µM) was 0.681 and the relative viability ([1]; first compound 2 µM) was 0.834. It also gave a relative viability ([1]; first compound 6.325 µM) of 0.718, a relative viability ([1]; first compound 20 µM) of 0.725 and a relative viability ([2]; first compound 0.2 µM) of 0.662. For the same cell line, the relative viability ([2]; first compound 0.6325 µM) was 0.68, the relative viability ([2]; first compound 2 µM) was 0.708 and the relative viability ([2]; first compound 6.325 µM) was 0.635. For the same cell line, the relative viability ([2]; first compound 20 µM) was 0.622, the relative viability ([3]; first compound 0.02 µM) was 1.21 and the relative viability ([3]; first compound 0.06325 µM) was 1.23. For the same cell line, the relative viability ([3]; first compound 0.2 µM) was 1.3, the relative viability ([3]; first compound 0.6325 µM) was 1.23 and the relative viability ([3]; first compound 2 µM) was 1.16. It also gave a relative viability ([4]; first compound 0.02 µM) of 0.506, a relative viability ([4]; first compound 0.06325 µM) of 0.543 and a relative viability ([4]; first compound 0.2 µM) of 0.546. For the same cell line, the relative viability ([4]; first compound 0.6325 µM) was 0.478 and the relative viability ([4]; first compound 2 µM) was 0.408.

ChaGo-K-1 showed a relative viability ([1]; first compound 0.2 µM) of 0.228, a relative viability ([1]; first compound 0.6325 µM) of 0.236 and a relative viability ([1]; first compound 2 µM) of 0.231. For the same cell line, the relative viability ([1]; first compound 6.325 µM) was 0.221, the relative viability ([1]; first compound 20 µM) was 0.251 and the relative viability ([2]; first compound 0.2 µM) was 0.458. For the same cell line, the relative viability ([2]; first compound 0.6325 µM) was 0.421, the relative viability ([2]; first compound 2 µM) was 0.413 and the relative viability ([2]; first compound 6.325 µM) was 0.441. For the same cell line, the relative viability ([2]; first compound 20 µM) was 0.392, the relative viability ([4]; first compound 0.02 µM) was 0.476 and the relative viability ([4]; first compound 0.06325 µM) was 0.507. It also gave a relative viability ([4]; first compound 0.2 µM) of 0.459, a relative viability ([4]; first compound 0.6325 µM) of 0.534 and a relative viability ([4]; first compound 2 µM) of 0.428.

COR-L 105 showed a relative viability ([1]; first compound 0.2 µM) of 0.335, a relative viability ([1]; first compound 0.6325 µM) of 0.463 and a relative viability ([1]; first compound 2 µM) of 0.32. The relative viability ([1]; first compound 6.325 µM) was 0.403, the relative viability ([1]; first compound 20 µM) was 0.342 and the relative viability ([2]; first compound 0.2 µM) was 0.757. It also gave a relative viability ([2]; first compound 0.6325 µM) of 0.622, a relative viability ([2]; first compound 2 µM) of 0.663 and a relative viability ([2]; first compound 6.325 µM) of 0.755. The relative viability ([2]; first compound 20 µM) was 0.665, the relative viability ([3]; first compound 0.02 µM) was 0.968 and the relative viability ([3]; first compound 0.06325 µM) was 0.94. It also gave a relative viability ([3]; first compound 0.2 µM) of 0.853, a relative viability ([3]; first compound 0.6325 µM) of 1.01 and a relative viability ([3]; first compound 2 µM) of 0.735. For the same cell line, the relative viability ([4]; first compound 0.02 µM) was 0.513, the relative viability ([4]; first compound 0.06325 µM) was 0.461 and the relative viability ([4]; first compound 0.2 µM) was 0.443. It also gave a relative viability ([4]; first compound 0.6325 µM) of 0.619 and a relative viability ([4]; first compound 2 µM) of 0.453.

In the case of NCI-H2170, the relative viability ([1]; first compound 0.2 µM) is reported as 0.822, the relative viability ([1]; first compound 0.6325 µM) is reported as 0.777 and the relative viability ([1]; first compound 2 µM) is reported as 0.675. It also gave a relative viability ([1]; first compound 6.325 µM) of 0.644, a relative viability ([1]; first compound 20 µM) of 0.769 and a relative viability ([2]; first compound 0.2 µM) of 0.67. It also gave a relative viability ([2]; first compound 0.6325 µM) of 0.561, a relative viability ([2]; first compound 2 µM) of 0.646 and a relative viability ([2]; first compound 6.325 µM) of 0.614. It also gave a relative viability ([2]; first compound 20 µM) of 0.624, a relative viability ([4]; first compound 0.02 µM) of 0.418 and a relative viability ([4]; first compound 0.06325 µM) of 0.403. For the same cell line, the relative viability ([4]; first compound 0.2 µM) was 0.474, the relative viability ([4]; first compound 0.6325 µM) was 0.368 and the relative viability ([4]; first compound 2 µM) was 0.426.

Cell Line A549 has a relative viability ([2]; first compound 0.2 µM) of 0.375, a relative viability ([2]; first compound 0.6325 µM) of 0.312 and a relative viability ([2]; first compound 2 µM) of 0.302. It also gave a relative viability ([2]; first compound 6.325 µM) of 0.331, a relative viability ([2]; first compound 20 µM) of 0.414 and a relative viability ([3]; first compound 0.02 µM) of 0.551. The relative viability ([3]; first compound 0.06325 µM) was 0.532, the relative viability ([3]; first compound 0.2 µM) was 0.567 and the relative viability ([3]; first compound 0.6325 µM) was 0.794. The relative viability ([3]; first compound 2 µM) was 0.523, the relative viability ([4]; first compound 0.02 µM) was 0.177 and the relative viability ([4]; first compound 0.06325 µM) was 0.165. For the same cell line, the relative viability ([4]; first compound 0.2 µM) was 0.126, the relative viability ([4]; first compound 0.6325 µM) was 0.136 and the relative viability ([4]; first compound 2 µM) was 0.132.

In the case of SW 1573, the relative viability ([1]; first compound 0.2 µM) is reported as 0.16, the relative viability ([1]; first compound 0.6325 µM) is reported as 0.23 and the relative viability ([1]; first compound 2 µM) is reported as 0.222. For the same cell line, the relative viability ([1]; first compound 6.325 µM) was 0.155, the relative viability ([1]; first compound 20 µM) was 0.136 and the relative viability ([2]; first compound 0.2 µM) was 0.665. The relative viability ([2]; first compound 0.6325 µM) was 0.403, the relative viability ([2]; first compound 2 µM) was 0.404 and the relative viability ([2]; first compound 6.325 µM) was 0.403. It also gave a relative viability ([2]; first compound 20 µM) of 0.0864, a relative viability ([3]; first compound 0.02 µM) of 0.722 and a relative viability ([3]; first compound 0.06325 µM) of 0.74. It also gave a relative viability ([3]; first compound 0.2 µM) of 0.8, a relative viability ([3]; first compound 0.6325 µM) of 0.739 and a relative viability ([3]; first compound 2 µM) of 0.736. It also gave a relative viability ([4]; first compound 0.02 µM) of 0.355, a relative viability ([4]; first compound 0.06325 µM) of 0.304 and a relative viability ([4]; first compound 0.2 µM) of 0.306. For the same cell line, the relative viability ([4]; first compound 0.6325 µM) was 0.301 and the relative viability ([4]; first compound 2 µM) was 0.236.

NCI-H1975 showed a relative viability ([1]; first compound 0.2 µM) of 0.833, a relative viability ([1]; first compound 0.6325 µM) of 0.685 and a relative viability ([1]; first compound 2 µM) of 0.855. The relative viability ([1]; first compound 6.325 µM) was 0.906, the relative viability ([1]; first compound 20 µM) was 0.755 and the relative viability ([2]; first compound 0.2 µM) was 1.03. It also gave a relative viability ([2]; first compound 0.6325 µM) of 0.761, a relative viability ([2]; first compound 2 µM) of 0.815 and a relative viability ([2]; first compound 6.325 µM) of 0.705. The relative viability ([2]; first compound 20 µM) was 0.495, the relative viability ([3]; first compound 0.02 µM) was 1.07 and the relative viability ([3]; first compound 0.06325 µM) was 0.956. For the same cell line, the relative viability ([3]; first compound 0.2 µM) was 0.885, the relative viability ([3]; first compound 0.6325 µM) was 0.98 and the relative viability ([3]; first compound 2 µM) was 0.926. It also gave a relative viability ([4]; first compound 0.02 µM) of 0.41, a relative viability ([4]; first compound 0.06325 µM) of 0.382 and a relative viability ([4]; first compound 0.2 µM) of 0.411. The relative viability ([4]; first compound 0.6325 µM) was 0.415 and the relative viability ([4]; first compound 2 µM) was 0.397.
